Source: patent US10562857B2 (AFASCI, Inc., priority 2015, dated 2020)

Molecular target: T1, Cav3.2 channel (Homo sapiens, UniProt O95180)
T1 construct: expressed in transfected cells; host or cells: HEK-293, tetracycline inducible expression system (Invitrogen)
Assay: Whole-cell patch clamp of T-type Cav3.2 channel expressed in HEK293 cells
Format: cell-based
Conditions: for IC50: Table 1, tested at at least 4 concentrations, read-out: IC50; for inhibition at 1 µM / inhibition at 3 µM: HEK293, Table 1 primary screening; for inhibition at 3 µM: 3 μM as indicated in cell, read-out: % inhibition at 3 μM
Method: Cav3.1, Cav3.2 or Cav3.3 channels were expressed in human embryonic kidney (HEK)-293 cells using a tetracycline inducible expression system (Invitrogen). Cells were maintained in 25 cm^2 tissue culture flasks at 37° C., 5% CO2, and 100% relative humidity in D-MEM/F12 (Dulbecco's Modified Eagle Medium/Nutrient Mixture F-12; Gibco) supplemented with fetal bovine serum (FBS, 10% v/v), sodium pyruvate (0.5 mM, Gibco), penicillin-streptomycin (100 U/mL, 100 μg/mL) and Geneticin® Selective antibiotic (G418; 0.5 mg/mL). Cells were detached from the flask base using a non-enzymatic cell dissociation solution (Cellstripper, Corning), removed and re-seeded on to poly-D-lysine coated glass coverslips in 35 mm dishes. Cells in dishes were further supplemented with G418 at a final concentration of 1 mg/mL and after 24 hours, expression of Cav3.2 was induced with 1 μg/mL tetracycline. The medium for the HEK-293 cells was composed of D-MEM/F-12 (Dulbecco's Modified Eagle Medium/Nutrient Mixture F-12; Gibco, #11330-032) and 15 mM HEPES buffer, with L-glutamine and pyridoxine hydrochloride. It was supplemented with FBS (Fetal Bovine Serum), P/S (Penicillin/Streptomycin) (Gibco, #15140-122), and sodium pyruvate 100 mM (Gibco, #11360-070). At least 24 hours before the assay, expression of the alpha-2-delta-1 and beta2a subunits of the calcium channel were induced with 1 ug/mL tetracycline.
Whole-cell voltage clamp recordings were performed on rat or mouse DRG neurons within 2 days after acutely dissociation or cultured HEK293 cells expressing T-type channels (encoded by Cav3.1, Cav3.2 or Cav3.3 channels). All experiments were performed at room temperature (around 21° C.). Whole-cell currents were recorded using a MultiClamp 700B amplifier and analyzed offline with pCLAMP10.4 software (Molecular Devices, LLC, Sunnyvale Calif., USA). To record calcium currents in DRG and HEK293 cells, the external solution was composed (in mM) of 115 choline-Cl, 30 TEA-Cl, 2 CaCl2, 10 glucose and 10 HEPES (pH 7.3-7.4 adjusted with TEA-OH; osmolality verified as 295 mOsm/kg). The internal solution was composed (in mM) of 125 CsCl, 10 HEPES (acid), 10 EGTA (ethylene glycol tetraacetic acid), 1 CaCl2, 1 MgCl2, 4 MgATP and 0.3 MgGTP (pH 7.3-7.4 adjusted with CsOH; osmolality verified as 295 mOsm/kg). Since the sodium ions were absent in the external solution, tetrodoctoxin was not needed. Calcium currents were recorded at a holding potential of −100 mV and then depolarized to −30 mV for 100 ms to activate either Cav3.1, Cav3.2, or Cav3.3 expressed in HEK cells. An interpulse interval of 10 seconds allowed the channel recovery from inactivation, and achieved stable current recordings. To record sodium (Na^+) currents in DRG neurons, the external solution used the modified Krebs solution specified above. The internal solution was composed (in mM) of 120 CsF, 10 HEPES, 11 EGTA, 1 CaCl2, 1 MgCl2, 10 TEA-Cl, 4 MgATP and 0.3 MgGTP (pH 7.3-7.4 adjusted with CsOH). […] To record potassium currents in DRG neurons, the external solution used the modified Kreb's solution specified above. The internal solution was composed (in mM) of 65 KCl, 80 KF, 5 KOH, 10 EGTA, 2 MgATP (pH 7.3-7.4 adjusted with KOH). Recording electrodes were fabricated using a P-87 puller (Sutter Instrument Co., Novato, Calif., USA). The tip of resistance was 3-4 MQ in bath and the series resistance was less than 10 MΩ after whole cell configuration. All reagents were purchased from Sigma unless specified otherwise. Test compounds were usually applied via a rapid solution exchange system with 8 fine polyplastic tubings (100 μm, OD) glued in a holder in parallel and located closely to the recorded cells. […]

T1 sequence (O95180 whole entry): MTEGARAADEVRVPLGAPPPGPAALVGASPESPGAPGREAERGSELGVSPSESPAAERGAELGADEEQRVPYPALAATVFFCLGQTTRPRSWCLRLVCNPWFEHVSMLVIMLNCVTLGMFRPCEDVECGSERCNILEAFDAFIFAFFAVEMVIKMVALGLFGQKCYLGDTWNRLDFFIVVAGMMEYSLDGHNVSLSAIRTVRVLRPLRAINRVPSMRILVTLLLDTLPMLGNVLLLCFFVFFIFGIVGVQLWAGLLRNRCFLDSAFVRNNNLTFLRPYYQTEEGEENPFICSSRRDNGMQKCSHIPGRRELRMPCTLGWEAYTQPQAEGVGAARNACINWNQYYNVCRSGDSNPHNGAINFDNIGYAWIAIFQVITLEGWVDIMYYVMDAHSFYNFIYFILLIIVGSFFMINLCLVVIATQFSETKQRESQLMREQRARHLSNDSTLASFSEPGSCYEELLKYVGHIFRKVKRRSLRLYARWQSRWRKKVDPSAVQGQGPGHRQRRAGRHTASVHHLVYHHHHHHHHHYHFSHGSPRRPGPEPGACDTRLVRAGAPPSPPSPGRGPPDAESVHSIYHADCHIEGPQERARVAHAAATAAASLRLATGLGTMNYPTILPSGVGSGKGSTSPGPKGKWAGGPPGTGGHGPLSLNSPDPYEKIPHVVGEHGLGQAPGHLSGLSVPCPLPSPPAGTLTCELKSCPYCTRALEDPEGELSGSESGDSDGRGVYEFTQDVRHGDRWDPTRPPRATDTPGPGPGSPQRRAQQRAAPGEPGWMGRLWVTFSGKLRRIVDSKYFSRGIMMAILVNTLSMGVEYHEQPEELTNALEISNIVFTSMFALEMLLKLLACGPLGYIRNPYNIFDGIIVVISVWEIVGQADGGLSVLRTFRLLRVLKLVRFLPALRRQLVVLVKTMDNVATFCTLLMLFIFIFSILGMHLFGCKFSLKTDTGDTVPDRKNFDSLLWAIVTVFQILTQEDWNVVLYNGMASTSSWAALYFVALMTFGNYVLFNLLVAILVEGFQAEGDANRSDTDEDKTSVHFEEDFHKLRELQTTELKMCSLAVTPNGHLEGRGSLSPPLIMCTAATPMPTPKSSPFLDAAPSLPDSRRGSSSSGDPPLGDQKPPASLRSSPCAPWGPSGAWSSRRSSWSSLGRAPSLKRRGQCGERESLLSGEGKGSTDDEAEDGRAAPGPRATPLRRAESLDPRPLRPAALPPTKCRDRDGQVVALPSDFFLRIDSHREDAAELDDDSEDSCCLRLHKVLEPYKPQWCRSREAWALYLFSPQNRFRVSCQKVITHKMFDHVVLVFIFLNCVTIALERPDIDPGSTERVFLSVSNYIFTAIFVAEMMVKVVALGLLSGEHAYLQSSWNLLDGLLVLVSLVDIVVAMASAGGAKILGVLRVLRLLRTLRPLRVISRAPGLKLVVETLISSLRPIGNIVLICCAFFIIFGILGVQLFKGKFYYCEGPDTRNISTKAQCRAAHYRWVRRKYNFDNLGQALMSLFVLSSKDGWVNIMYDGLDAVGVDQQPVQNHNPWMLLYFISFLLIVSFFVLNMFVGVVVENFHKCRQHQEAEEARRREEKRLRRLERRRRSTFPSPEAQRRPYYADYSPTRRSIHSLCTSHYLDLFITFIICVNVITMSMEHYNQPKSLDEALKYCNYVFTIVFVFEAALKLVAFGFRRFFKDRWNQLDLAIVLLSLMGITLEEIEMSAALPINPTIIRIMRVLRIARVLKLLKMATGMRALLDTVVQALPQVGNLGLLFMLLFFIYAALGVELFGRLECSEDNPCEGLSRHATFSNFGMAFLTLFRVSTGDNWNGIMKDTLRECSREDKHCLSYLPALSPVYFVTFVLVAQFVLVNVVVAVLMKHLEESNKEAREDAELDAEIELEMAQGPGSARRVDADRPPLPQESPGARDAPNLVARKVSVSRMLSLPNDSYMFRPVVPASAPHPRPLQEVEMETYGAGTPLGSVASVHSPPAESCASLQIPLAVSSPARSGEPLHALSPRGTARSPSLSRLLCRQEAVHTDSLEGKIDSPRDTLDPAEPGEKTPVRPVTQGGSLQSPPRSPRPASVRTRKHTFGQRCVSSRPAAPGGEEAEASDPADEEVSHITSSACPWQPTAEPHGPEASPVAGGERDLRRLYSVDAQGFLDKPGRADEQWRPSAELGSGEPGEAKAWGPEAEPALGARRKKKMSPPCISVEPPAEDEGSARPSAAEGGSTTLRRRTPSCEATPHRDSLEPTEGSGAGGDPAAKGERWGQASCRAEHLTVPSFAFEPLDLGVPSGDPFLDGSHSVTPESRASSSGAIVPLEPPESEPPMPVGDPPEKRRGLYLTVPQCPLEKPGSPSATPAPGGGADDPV

IC50	inhibition at 1 µM	Structure (SMILES)	other results
190 nM		CC(C)(C)NC(=O)CN1CCC2(CC1)C[C@@H]2NC(=O)c1cc(Cl)cc(Cl)c1 (single isomer, unassigned) [Example 56, (S)—N-(6-(2-(tert-Butylamino)-2-oxoethyl)-6-azaspiro[2.5]octan-1-yl)-3,5-dichlorobenzamide or (R)—N-(6-(2-(tert-Butylamino)-2-oxoethyl)-6-azaspiro[2.5]octan-1-yl)-3,5-dichlorobenzamide]	
	5.9%	Cc1cc(C(=O)Nc2nnc(-c3ccccc3F)o2)no1 [Example 126, N-(5-(2-Fluorophenyl)-1,3,4-oxadiazol-2-yl)-5-methylisoxazole-3-carboxamide]	
	33%	O=C(NCC1CCN(CCC2CC2)CC1)c1ccc(Cl)s1 [Example 97, 5-Chloro-N-((1-(2-cyclopropylethyl)piperidin-4-yl)methyl)thiophene-2-carboxamide]	
	47%	O=C(CN1CCC(CNC(=O)c2ccc(O)cc2)CC1)Nc1ccccc1 [Example 102, 4-Hydroxy-N-((1-(2-oxo-2-(phenylamino)ethyl)piperidin-4-yl)methyl)benzamide]	
290 nM		Cc1cc(C)cc(C(=O)NC2CC23CCN(CCC(C)(C)C)CC3)c1 (centres unmarked) [Example 32, N-(6-(3,3-Dimethylbutyl)-6-azaspiro[2.5]octan-1-yl)-3,5-dimethylbenzamide]	
	67%	CC(C)(C)CCN1CCC2(CC1)CC2NC(=O)c1cccc(Cl)c1 (centres unmarked) [Example 21, 3-Chloro-N-(6-(3,3-dimethylbutyl)-6-azaspiro[2.5]octan-1-yl)benzamide]	
290 nM		CC(C)(C)NC(=O)CN1CCC2(CC1)CC2NC(=O)C12CC3CC(CC(C3)C1)C2 (centres unmarked) [Example 143, N-(6-(2-(tert-Butylamino)-2-oxoethyl)-6-azaspiro[2.5]octan-1-yl)adamantane-1-carboxamide]	
		CC(C)(C)CCN1CCC2(CC1)CC2NC(=O)c1ccccc1 (centres unmarked) [Example 2, N-(6-(3,3-Dimethylbutyl)-6-azaspiro[2.5]octan-1-yl)benzamide]	inhibition at 3 µM: 55.3%
180 nM		O=C(CN1CCC2(CC1)CC2NC(=O)c1cc(F)cc(Cl)c1)c1ccc(F)cc1 (single isomer, unassigned) [Example 138, (R)-3-Chloro-5-fluoro-N-(6-(2-(4-fluorophenyl)-2-oxoethyl)-6-azaspiro[2.5]octan-1-yl)benzamide or (S)-3-Chloro-5-fluoro-N-(6-(2-(4-fluorophenyl)-2-oxoethyl)-6-azaspiro[2.5]octan-1-yl)benzamide]	
		CC(C)CN1CCC2(CC1)CC2NC(=O)c1ccc(Cl)c(Cl)c1 (centres unmarked) [Example 6, 3,4-Dichloro-N-(6-isobutyl-6-azaspiro[2.5]octan-1-yl)benzamide]	inhibition at 3 µM: 29.1%
120 nM		O=C(NC1CC12CCN(CCc1ccc(C(F)(F)F)cc1)CC2)c1cc(Cl)cc(Cl)c1 (centres unmarked) [Example 43, 3,5-Dichloro-N-(6-(4-(trifluoromethyl)phenethyl)-6-azaspiro[2.5]octan-1-yl)benzamide]	
90 nM		CC(C)(C)CCN1CCC2(CC1)CC2CNC(=O)c1cc(Cl)cc(Cl)c1 (centres unmarked) [Example 88, 3,5-Dichloro-N-((6-(3,3-dimethylbutyl)-6-azaspiro[2.5]octan-1-yl)methyl)benzamide]	
	50%	CC(C)(C)CCN1CCC2(CC1)CC2NC(=O)c1ccc(Cl)cc1 (centres unmarked) [Example 22, 4-Chloro-N-(6-(3,3-dimethylbutyl)-6-azaspiro[2.5]octan-1-yl)benzamide]	
120 nM		O=C(NC1CC12CCN(CCc1ccccc1)CC2)c1ccc(Cl)c(Cl)c1 (centres unmarked) [Example 8, 3,4-Dichloro-N-(6-phenethyl-6-azaspiro[2.5]octan-1-yl)benzamide]	
	14.9%	Cc1cc(C(=O)Nc2nnc(-c3ccccc3)o2)no1 [Example 122, 5-Methyl-N-(5-phenyl-1,3,4-oxadiazol-2-yl)isoxazole-3-carboxamide]	
	9.2%	O=C(CCc1ccc(Cl)c(Cl)c1)Nc1nnc(-c2ccc(Cl)s2)o1 [Example 120, N-(5-(5-Chlorothiophen-2-yl)-1,3,4-oxadiazol-2-yl)-3-(3,4-dichlorophenyl)propanamide]	
160 nM		O=C(NC1CC12CCN(CCC1CCOCC1)CC2)c1cc(Cl)cc(Cl)c1 (centres unmarked) [Example 47, 3,5-Dichloro-N-(6-(2-(tetrahydro-2H-pyran-4-yl)ethyl)-6-azaspiro[2.5]octan-1-yl)benzamide]	
120 nM		CC(C)(C)CCN1CCC2(CC1)CC2NC(=O)c1ccc(Cl)c(Cl)c1 (centres unmarked) [Example 7, 3,4-Dichloro-N-(6-(3,3-dimethylbutyl)-6-azaspiro[2.5]octan-1-yl)benzamide]	
50 nM		CC(C)NC(=O)CN1CCC2(CC1)CC2NC(=O)c1cc(Cl)cc(Cl)c1 (centres unmarked) [Example 37, 3,5-Dichloro-N-(6-(2-(isopropylamino)-2-oxoethyl)-6-azaspiro[2.5]octan-1-yl)benzamide]	
		O=C(NC1CC12CCN(CCc1ccccc1)CC2)c1ccccc1 (centres unmarked) [Example 3, N-(6-Phenethyl-6-azaspiro[2.5]octan-1-yl)benzamide]	inhibition at 3 µM: 47.7%
	24%	O=C(Nc1nnc(-c2ccc(Cl)s2)o1)c1ccccc1 [Example 117, N-(5-(5-Chlorothiophen-2-yl)-1,3,4-oxadiazol-2-yl)benzamide]	
550 nM		CC(C)(C)CCN1CCC2(CC1)CC2NC(=O)c1ccc(Cl)s1 (centres unmarked) [Example 27, 5-Chloro-N-(6-(3,3-dimethylbutyl)-6-azaspiro[2.5]octan-1-yl)thiophene-2-carboxamide]	
	44%	O=C(CN1CCC(CNC(=O)c2ccccc2)CC1)Nc1ccccc1 [Example 101, N-((1-(2-Oxo-2-(phenylamino)ethyl)piperidin-4-yl)methyl)benzamide]	
250 nM		CC(C)(C)NC(=O)CN1CCC2(CC1)CC2NC(=O)c1cc(F)cc(C(F)(F)F)c1 (centres unmarked) [Example 18, N-{6-[(tert-Butylcarbamoyl)methyl]-6-azaspiro[2.5]octan-1-yl}-3-fluoro-5-(trifluoromethyl)benzamide]	
220 nM		CC(C)(C)C(O)CN1CCC2(CC1)CC2NC(=O)c1cc(Cl)cc(Cl)c1 (centres unmarked) [Example 58, 3,5-Dichloro-N-(6-(2-hydroxy-3,3-dimethylbutyl)-6-azaspiro[2.5]octan-1-yl)benzamide]	
210 nM		CC(C)(C)C(O)CN1CCC2(CC1)CC2NC(=O)c1cc(F)cc(Cl)c1 (single isomer, unassigned) [Example 135, 3-Chloro-5-fluoro-N-((1R)-6-(2-hydroxy-3,3-dimethylbutyl)-6-azaspiro[2.5]octan-1-yl)benzamide or 3-Chloro-5-fluoro-N-((1S)-6-(2-hydroxy-3,3-dimethylbutyl)-6-azaspiro [2.5]octan-1-yl) benzamide]	
	75%	CC(C)(C)NC(=O)CN1CCC(CNC(=O)CCc2cccc(Cl)c2)CC1 [Example 99, N-((1-(2-(tert-Butylamino)-2-oxoethyl)piperidin-4-yl)methyl)-3-(3-chlorophenyl)propanamide]	
		O=C(NC1CC12CCN(Cc1ccccc1)CC2)c1ccccc1 (centres unmarked) [Example 5, N-(6-Benzyl-6-azaspiro[2.5]octan-1-yl)benzamide]	inhibition at 3 µM: 44%
80 nM		CC(C)(C)NC(=O)CN1CCC2(CC1)CC2NC(=O)c1ccc(Cl)c(Cl)c1 (centres unmarked) [Example 9, N-(6-(2-(tert-Butylamino)-2-oxoethyl)-6-azaspiro[2.5]octan-1-yl)-3,4-dichlorobenzamide]	
